Data on 1 molecule can be found in patent US20250195714A1, “DEVICES AND METHODS OF TREATING WOUNDS” (University of Massachusetts, priority 2022, published 2025).

For one data set, the system named is scald injuries. In words: Scald injuries treated with similar TXA dressings. The format is in vivo, Human. How it is done:
In particular, a child with a scald was treated with TIELLE™ containing TXA and the dressing was removed after ten days.

Data set [1] relates to rhytidoplasty (face lift). To be noted: local TXA irrigation; first twenty-four hours after rhytidoplasty; cited from earlier work.
The test system of data set [2] is keratinocyte and fibroblast cell cultures. To be noted: short exposure to even high concentrations of topical TXA; cited from earlier work.
The next data set relates to skin graft donor sites. In words: Human patients, skin-graft donor site treated with TXA embedded dressings without a drain. It is filed as in vivo. How it is done: Human patients were treated with TXA embedded dressings. A 50 cm^2 partial thickness wound was generated with a dermatome, thereby creating the skin-graft donor site. […] Non-adherent sterile dressings (TIELLE™) were contacted with the solution and placed directly on the donor site dressing.
The wounds were covered with a semipermeable film ([…]™) without a drain. Normally a dermal drain is placed through the film into contact with the wound with the intention of collecting fluid. A total of 300 ml in 5 days is normally collected (60 ml per day=[…]).

The next data set deals with chronic ulcers. As to the kind of experiment: Chronic ulcers treated with similar TXA dressings. It is filed as in vivo, Human.

Entries after “also recorded” stand apart in the source; their conditions may differ.

On to `NC[C@H]1CC[C@H](C(=O)O)CC1` [TXA, tranexamic acid], for which the reepithelization entry in the data set with scald injuries and in the data set on chronic ulcers was “near complete reepithelization” in each case. In addition, the bleeding result was “decrease bleeding” in data set [1] and “little bleeding” in the data set on skin graft donor sites (skin graft donor sites, topical TXA). In addition, in data set [1], the drainage entry was “reduce drainage”. The tolerance in vitro result in data set [2] is on record as “well tolerated”. The amount of exudate entry in the data set with skin graft donor sites (50 cm^2 partial thickness skin-graft donor site, one to two grams TXA in 10 ml normal saline on TIELLE dressing, TEGADERM film, no drain) was “reducing significantly the amount of exudate; also recorded: greatly reduce exudate”. Also, the “adverse effect of TXA” value in the data set on skin graft donor sites (skin-graft donor site, topical TXA dressing) is recorded as “no adverse effect”. For the same molecule, the “re-epithelialization of the wound” value in the data set on skin graft donor sites (skin-graft donor site, at removal of original dressing (12-14 days, 8-16 days)) is “re-epithelialized skin surface without the need for placement of a further dressing; also recorded: In most cases the wound was fully epithelialized; also recorded: rapid and complete or near complete re-epithelialization”.
